Measured values reported in patent US20250188080A1, “IMIDAZOLONYLQUINOLINE COMPOUNDS AND THERAPEUTIC USES THEREOF” (Merck Patent GmbH, priority 2019, published 2025).

Experiments:
[1] = system: pCHK2 (Cellular mechanistic ATM, HCT-116); assay: Cellular pCHK2 assay (bleomycin-induced phospho-Thr68 CHK2); type: cell-based, human
From the text: For the identification of substances which inhibit the phosphorylation of the protein kinase CHK2 (checkpoint kinase 2) at the amino acid threonine 68, an immunofluorescence-based “high content” analysis assay was used in HCT116 cells. In vitro cell-based immunofluorescence assay for the identification of inhibitors of bleomycin-induced phosphorylation of CHK2 (phospho-Thr68) in the human colon carcinoma cell line HCT116: HCT116 cells are sown out in a defined cell density in 384-well plates in culture medium (DMEM high glucose, 2 mM GlutaMax, 1 mM Na pyruvate, 10% FCS) and incubated overnight at 37° C. and 10% of CO2. On the following day, the test substances are added in a defined concentration range (1 nM to 30 μM) in combination with 10 μM bleomycin, where the concentration of the solvent DMSO is kept constant at 0.5%. After incubation for four hours at 37° C. and 10% of CO2, the cells are fixed (5 min, 4% formaldehyde in PBS), permeabilised (10 min, 0.2% Triton X-100 in PBS) and, after blocking of nonspecific binding sites (10% goat serum, 1% BSA in PBS), incubated overnight at 4° C. with a specific anti-pCHK2 antibody (cell signaling #2661). pCHK2 (Thr68) is determined using an Alexa488-labelled secondary anti-rabbit IgG antibody. Parallel staining of DNA with propidium iodide enables determination of the cell count. The pCHK2 signal is detected using a high-content imager (Molecular Devices IMX Ultra) and automatic image analysis using the MetaXpress software belonging to the instrument. The number of cell nuclei which have a pCHK2 signal above a defined background is determined.

[2] = system: pCHK1 (Cellular mechanistic ATR, HCT-116); assay: pCHK1 cellular assay; type: cell-based, human
[3] = Microsomal stability (intrinsic clearance), mouse; type: in vitro ADME; parameters: microsomal CLint: dose or concentration left out as unconfirmed; details: for CLint (mouse): mouse microsomes
From the text: A microsomal stability assay is used to measure in vitro clearance (Clint). The assay involves measuring the rate of disappearance of a compound due to its intrinsic attitude to be metabolized (“intrinsic” meaning that the disappearance is not affected by other properties like permeability, binding etc. that play a role when quantifying in vivo clearance). The microsomal stability (intrinsic clearance, Clint) and, thus, metabolic stability is generally given as μl/min/mg protein. It can be visualized as the volume of solution that 1 mg of microsomes is able to clear of the compound in one minute.
A Tecan Genesis workstation (RSP 150/8) was used for to perform the microsomal incubations. Analysis was carried out using a Waters ACQUITY UPLC system coupled to an ABSciex API3000 mass spectrometer. Data analysis was performed using Assay Explorer (Symyx).
• Potassium phosphate buffer: 0.05 M potassium phosphate buffer pH 7.4 containing 1 mM MgCl2 • NADPH (nicotinamide adenine dinucleotide phosphate): 22.5 mg NADPH-Na4 in 1.8 ml potassium phosphate buffer • Acetonitrile: 50 Vol % acetonitrile (1 volume acetonitrile, 1 volume water) • DMSO: 20 Vol % DMSO in water • Stock solution of 20 mg/ml human or mouse liver microsomes (protein)/ml in phosphate buffer • Stock solution of 10 mM compound in 100% DMSO
Dilution of test compounds was done in 2 steps starting from a 10 mM stock solution of the respective compound in 100% DMSO. First 4 μl stock solution was added to 196 μl of 20 Vol % DMSO. In a second step, 10 μl of the first dilution were added to 1590 μl potassium phosphate buffer to achieve a final concentration of 1.25 μM in the final compound dilution. Thus, the amount of organic solvent in the assay was kept to a minimum (<1%).
The human or mouse liver microsome (protein) solution to be used in the assay was prepared by mixing 750 μl stock solution (20 mg/ml) and 2250 μl potassium phosphate buffer to a final concentration of 5 mg/ml.
Incubation was carried out on a 96 deep well incubation plate. […]

[4] = Homo sapiens, HCT-116, HCT-116 as printed in the table

SMILES	IC50 ([1]; HCT-116, 10 μM bleomycin) [nM]	IC50 [2, 4] [nM]	CLint (mouse) [3] [μl/min/mg protein]	IC50 ([2]; HCT-116) [nM]	IC50 ([1]; Homo sapiens, HCT-116, HCT-116, 10 μM bleomycin) [nM]	microsomal CLint ([3]; mouse, liver microsomes, pH 7.4, mouse microsomes) [µL/min/mg]
COc1cc2ncc3c(c2cc1-c1cn(C)nc1C)n(-c1c(F)cncc1OC)c(=O)n3C (single isomer, unassigned) [Compound 1, 8-(1,3-Dimethyl-1H-pyrazol-4-yl)-1-(Sa)-(3-fluoro-5-methoxy-pyridin-4-yl)-7-methoxy-3-methyl-1,3-dihydro-imidazo[4,5-c]quinolin-2-one]	13	≥ 24000	22	–	–	–
COc1cc2ncc3c(c2cc1-c1cn(C)nc1C)n(-c1c(F)cncc1OC)c(=O)n3C (single isomer, unassigned) [Compound 2, 8-(1,3-Dimethyl-1H-pyrazol-4-yl)-1-(Ra)-(3-fluoro-5-methoxy-pyridin-4-yl)-7-methoxy-3-methyl-1,3-dihydro-imidazo[4,5-c]quinolin-2-one]	76	–	103	> 30000	–	–
COc1cc2ncc3c(c2cc1-c1cn(C)nc1C)n(-c1c(F)cncc1OC)c(=O)n3C [Compound Y, 8-(1,3-dimethyl-1H-pyrazol-4-yl)-1-(3-fluoro-5-methoxypyridin-4-yl)-7-methoxy-3-methyl-1,3-dihydroimidazo[4,5-c]quinolin-2-one, reference compound]	–	7900	–	–	86	61
